The record followed here is PMC6494831, “Drug-like Fragments Inhibit agr-Mediated Virulence Expression in Staphylococcus aureus” (Scientific Reports, 2019).

SMILES strings stand for the structures. Like-named read-outs stand apart in the source and are kept apart here.

This assay deals with AgrA (Staphylococcus aureus, UniProt P0A0I7). The assay is described as follows: ITC with purified AgrAC, one-site fit, N fixed to […]. Format: binding.

Usually Kd stands for the constant that tells how readily two partners part at equilibrium.

AgrA, sequence (P0A0I7 137-238): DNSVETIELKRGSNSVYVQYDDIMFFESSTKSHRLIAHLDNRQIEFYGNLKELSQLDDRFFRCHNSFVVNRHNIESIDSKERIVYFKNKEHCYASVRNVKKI

In turn, `O=C(O)C1c2ccccc2Oc2ccccc21` [compound 1, 9H-xanthene-9-carboxylic acid] yielded a Kd of 485 ± 39.3 µM. The same measure, in the same setting: then `Cc1ccc(-c2nc(C(=O)O)cs2)cc1` [compound 2, 2-(4-methylphenyl)-1,3-thiazole-4-carboxylic acid], with 417 ± 62.9 µM. Consider `Cc1cc(O)cc(C)c1C#N` [compound 3, 4-hydroxy-2,6-dimethylbenzonitrile], for which the Kd (read-out: Kd) was 110 ± 45.6 µM.
